Format in all cases: cell-based
For experiment [1], the system named is SOCE, Jurkat E6.1 cells. Put plainly: SOCE inhibition (thapsigargin/calcium influx, FLIPR). As to conditions: Homo sapiens, thapsigargin, calcium chloride. On the procedure:
SOCE inhibition: Jurkat E6.1 cells were seeded at a density of 1-2×10^5 cells per well in calcium-4 dye prepared in calcium free HBSS (Sigma, USA). Test compounds from this invention were added to the cells at different concentrations. This was followed by the addition of thapsigargin (TG), a SERCA inhibitor, to empty the stores of calcium. Calcium chloride was added to the cells after 10-30 min to induce calcium influx and the fluorescence was measured for 10 min using the FLIPR-Tetra detection system. Fluorescence was also measured using a plate reader at 485 nm excitation and 520 nm emission (Synergy2, Biotek, USA) after 30-90 minutes of calcium addition. Fluorescence observed in cells treated with Thapsigargin and calcium chloride solution was considered 100% maximal signal and the reduced fluorescent signal observed in the presence of test compounds was expressed as percent inhibition of the maximal signal. The dose response data was analyzed using 4-parametric sigmoidal dose response (variable slope) curve-fit.

Experiment [2] deals with IL-2 secretion, Jurkat T cells. Put plainly: Inhibition of IL-2 secretion (PHA-stimulated Jurkat T cells, ELISA). Conditions: Homo sapiens; Jurkat T cells stimulated with PHA, 20 to 24 hours. The method, then: The CRAC channel modulatory activity of the compounds were thus evaluated by measuring the secretion of IL-2 by antigen stimulated T-cells in vitro. Alternatively, such activity can also be evaluated by assay methods known to one skilled in the art.
Inhibition of IL-2 secretion: Jurkat T cells were seeded at a density of 0.5 to 1 million cells per well in RPMI medium. Test compounds from this invention were added to the cells at different concentrations. This was followed by the addition of PHA, a T cell mitogen after 10 minutes.
The cells were then incubated for 20 to 24 hours in a CO2 incubator at 37° C. After incubation with the compounds, cells were centrifuged, collected the supernatant and processed for ELISA to quantitate the amount of IL-2 secreted. A commercial ELISA kit (R&D Systems, Inc. Minneapolis, Minn., USA) was used to estimate the IL-2 concentrations. Amount of IL-2 secreted by cells stimulated with PHA was considered as a 100% maximal signal and the decrease in amount of IL-2 secreted by cells treated with the test compounds was expressed as percent inhibition of the maximal signal. The dose response data was analyzed using 4-parametric sigmoidal dose response (variable slope) curve-fit.

In experiment [3] the test system is NFAT-Luc reporter gene, HEK 293 cells. In words: NFAT transcriptional activity (NFAT-Luc reporter). Conditions: Homo sapiens, HEK293, thapsigargin. On the procedure: NFAT Transcriptional Activity: HEK 293 cells were stably transfected with a NFAT-Luc reporter gene. 30,000-80,000 cells were seeded per well. Test compounds from this invention were added to the cells at different concentrations. Thapsigargin (TG) was added after 10 mins and the cells were incubated for 4-8 h. NFAT transcriptional activity was measured using BrightGlo reagent (Promega USA). Luminescence observed in cells treated with thapsigargin was considered 100% maximal signal and the reduced fluorescent signal observed in the presence of test compounds was expressed as percent inhibition of the maximal signal. The data was analyzed using 4-parametric sigmoidal dose response (variable slope) curve-fit.

Each structure is given as a SMILES string.

Consider `COc1ccc(C2=NOC(C)(C)C2=O)cc1-c1ccc(NC(=O)c2c(F)cccc2F)cc1` [Example 15, N-(5′-(5,5-dimethyl-4-oxo-4,5-dihydroisoxazol-3-yl)-2′-methoxy-[1,1′-biphenyl]-4-yl)-2,6-difluorobenzamide], for which the IC50 in experiment [1] was under 1000 nM.

On to `Cc1c(C2=NOC(C)(C)C2=O)cccc1-c1ccc(NC(=O)c2c(F)cccc2F)cc1` [Example 29, N-(3′-(5,5-Dimethyl-4-oxo-4,5-dihydroisoxazol-3-yl)-2′-methyl-[1,1′-biphenyl]-4-yl)-2,6-difluorobenzamide], for which the IC50 is under 100 nM in experiment [2] and under 500 nM in experiment [3].

For the molecule `COc1ccc(-c2nn(C)c(=O)o2)cc1-c1ccc(NC(=O)c2c(F)cccc2Cl)cc1` [Example 41, 2-Chloro-6-fluoro-N-(2′-methoxy-5′-(4-methyl-5-oxo-4,5-dihydro-1,3,4-oxadiazol-2-yl)[1,1′-biphenyl]-4-yl)benzamide], the IC50 in experiment [1] is under 1000 nM.

In experiment [3], `Cc1nnsc1C(=O)Nc1ccc(-c2cccc(-c3nn(C)c(=O)o3)c2C)cc1` [Example 50, 4-Methyl-N-(2′-methyl-3′-(4-methyl-5-oxo-4,5-dihydro-1,3,4-oxadiazol-2-yl)-[1,1′-biphenyl]-4-yl)-1,2,3-thiadiazole-5-carboxamide] gave an IC50 of under 500 nM.

On to `CC(C)Oc1ccc(C2=NOC(C)(C)C2=O)cc1-c1cnc(NC(=O)c2c(F)cccc2F)cn1` [Example 126, N-(5-(5-(5,5-dimethyl-4-oxo-4,5-dihydroisoxazol-3-yl)-2-isopropoxy-phenyl)pyrazin-2-yl)-2,6-difluorobenzamide], for which the concentration for half-maximal inhibition (IC50) in experiment [2] was in the range of 100 to 1000 nM.

For the molecule `C=CCOc1ccc(C2=NOC(C)(C)C2=O)cc1-c1ccc(NC(=O)c2c(F)cccc2F)cc1` [Example 132, N-(2′-(allyloxy)-5′-(5,5-dimethyl-4-oxo-4,5-dihydroisoxazol-3-yl)-[1,1′-biphenyl]-4-yl)-2,6-difluorobenzamide], the IC50 in experiment [2] was in the range of 100 to 1000 nM.

As for `CNc1ccc(C2=NOC(C)(C)C2=O)cc1-c1ccc(NC(=O)c2c(F)cccc2F)cc1` [Example 135, N-(5′-(5,5-Dimethyl-4-oxo-4,5-dihydroisoxazol-3-yl)-2′-(methylamino)-[1,1′-biphenyl]-4-yl)-2,6-difluorobenzamide], the IC50 is under 100 nM in experiment [2], under 1000 nM in experiment [1] and under 500 nM in experiment [3].

For the molecule `CN(C)c1ccc(C2=NOC(C)(C)C2=O)cc1-c1ccc(NC(=O)c2c(F)cccc2F)cc1` [Example 136, N-(5′-(5,5-Dimethyl-4-oxo-4,5-dihydroisoxazol-3-yl)-2′-(dimethylamino)-[1,1′-biphenyl]-4-yl)-2,6-difluorobenzamide], the IC50 in experiment [2] fell in the range of 100 to 1000 nM.

In turn, `Cc1ccc(C2=NOC(CO)(CCO)C2)cc1-c1ccc(NC(=O)c2c(F)cccc2F)cc1` (stereo not drawn) [Example 145, 2,6-Difluoro-N-(5′-(5-(2-hydroxyethyl)-5-(hydroxymethyl)-4,5-dihydroisoxazol-3-yl)-2′-methyl-[1,1′-biphenyl]-4-yl)benzamide] returned an IC50 in experiment [2] of over 1000 nM.

Take `CCc1ccc(C2=NOC(C)(C)C2=O)cc1-c1ccc(C(=O)Nc2c(F)cccc2F)s1` [Example 157, N-(2,6-Difluorophenyl)-5-(5-(5,5-dimethyl-4-oxo-4,5-dihydroisoxazol-3-yl)-2-ethyl-phenyl)thiophene-2-carboxamide]: the IC50 in experiment [2] was under 100 nM.

For the molecule `CCc1ccc(C2=NOC(C)(C)C2=O)cc1-c1ccc(C(=O)Nc2ccncc2C)s1` [Example 158, 5-(5-(5,5-Dimethyl-4-oxo-4,5-dihydroisoxazol-3-yl)-2-ethylphenyl)-N-(3-methylpyridin-4-yl)thiophene-2-carboxamide], the 50% inhibitory concentration (IC50) in experiment [2] was under 100 nM.

As for `COc1ccc(C2=NOC(C)(C)C2=O)cc1-c1ccc(C(=O)Nc2c(F)cccc2F)s1` [Example 160, N-(2,6-Difluorophenyl)-5-(5-(5,5-dimethyl-4-oxo-4,5-dihydroisoxazol-3-yl)-2-methoxy-phenyl)thiophene-2-carboxamide], the results for the IC50 in experiment [2] and in experiment [1] were under 100 nM and under 1000 nM, respectively.

In turn, `CCc1ccc(-c2nn(C)c(=O)o2)cc1-c1ccc(C(=O)Nc2c(F)cccc2F)s1` [Example 171, N-(2,6-Difluorophenyl)-5-(2-ethyl-5-(4-methyl-5-oxo-4,5-dihydro-1,3,4-oxadiazol-2-yl)phenyl)thiophene-2-carboxamide] yielded an IC50 in experiment [2] of under 100 nM.

With `Cn1nc(-c2ccc(OC(F)F)c(-c3ccc(C(=O)Nc4c(F)cccc4F)s3)c2)oc1=O` [Example 173, 5-(2-(Difluoromethoxy)-5-(4-methyl-5-oxo-4,5-dihydro-1,3,4-oxadiazol-2-yl)phenyl)-N-(2,6-difluorophenyl) thiophene-2-carboxamide], the IC50 in experiment [2] was under 100 nM.

Consider `Cc1c(-c2nn(C)c(=O)o2)cccc1-c1ccc(C(=O)Nc2c(F)cccc2F)s1` [Example 176, N-(2,6-Difluorophenyl)-5-(2-methyl-3-(4-methyl-5-oxo-4,5-dihydro-1,3,4-oxadiazol-2-yl)phenyl)thiophene-2-carboxamide], for which the IC50 in experiment [2] is under 100 nM; in experiment [1], under 1000 nM; in experiment [3], under 500 nM.

The record behind these values is patent US10292981B2, “Oxazoline and isoxazoline derivatives as CRAC modulators” (LUPIN LIMITED, priority 2010, dated 2019).
